Reference: ChEMBL document CHEMBL3885881, “DrugMatrix”

Species on record: Rattus norvegicus
Assay: DrugMatrix - Regimen: Daily Repeat
Assay type: toxicity, organism-based, Sprague-Dawley
Parameters: regimen Daily Repeat, gender Male, age 6-8 weeks
Conditions: in vivo, po, route oral GAVAGE, vehicle .5 % CMC; for PHOSPHORUS / POTASSIUM / SODIUM / TOTAL BILIRUBIN / TOTAL PROTEIN / ALANINE AMINOTRANSFERASE / ALBUMIN / ALKALINE PHOSPHATASE / ASPARTATE AMINOTRANSFERASE / BLOOD UREA NITROGEN / CHLORIDE / CHOLESTEROL / CREATINE PHOSPHOKINASE / CREATININE / GLUCOSE: tissue Plasma; for BASOPHIL / EOSINOPHIL / ERYTHROCYTE COUNT / HEMATOCRIT / HEMOGLOBIN / LEUKOCYTE COUNT / LYMPHOCYTE / MEAN CORPUSCULAR HEMOGLOBIN / MEAN CORPUSCULAR HEMOGLOBIN CONCENTRATION / MEAN CORPUSCULAR VOLUME / MONOCYTE / NEUTROPHIL / PLATELET COUNT: tissue Blood
[1] = 150 mg/kg, 72 h, dose level M1, time 3 day
[2] = 150 mg/kg, 120 h, dose level M1, time 5 day
[3] = 1500 mg/kg, 72 h, dose level High, time 3 day
[4] = 1500 mg/kg, 120 h, dose level High, time 5 day

O=c1cc(-c2ccccc2)oc2ccc3ccccc3c12 [BETA-NAPHTHOFLAVONE]
PHOSPHORUS [1]: 12.8 mg/dL | POTASSIUM [1]: 6.93 MEQ/L | SODIUM [1]: 148.33 MEQ/L | TOTAL BILIRUBIN [1]: 0.4 mg/dL | TOTAL PROTEIN [1]: 5.97 G/DL | BASOPHIL [2]: 0.37% | EOSINOPHIL [2]: 0.43% | ERYTHROCYTE COUNT [2]: 7.05 x10E6/uL | HEMATOCRIT [2]: 42.83% | HEMOGLOBIN [2]: 13.57 G/DL | LEUKOCYTE COUNT [2]: 14.17 x10E3/uL | LYMPHOCYTE [2]: 88.67% | MEAN CORPUSCULAR HEMOGLOBIN [2]: 19.27 pg | MEAN CORPUSCULAR HEMOGLOBIN CONCENTRATION [2]: 31.67 G/DL | MEAN CORPUSCULAR VOLUME [2]: 60.87 fL | MONOCYTE [2]: 1.77% | NEUTROPHIL [2]: 7.87% | PLATELET COUNT [2]: 1364.33 x10E3/uL | ALANINE AMINOTRANSFERASE [2]: 42.67 u/L | ALBUMIN [2]: 3.6 G/DL | ALKALINE PHOSPHATASE [2]: 295 u/L | ASPARTATE AMINOTRANSFERASE [2]: 69.33 u/L | BLOOD UREA NITROGEN [2]: 14 mg/dL | CHLORIDE [2]: 104 MEQ/L | CHOLESTEROL [2]: 99 mg/dL | CREATINE PHOSPHOKINASE [2]: 224.33 u/L | CREATININE [2]: 0.47 mg/dL | GLUCOSE [2]: 169 mg/dL | PHOSPHORUS [2]: 12.43 mg/dL | POTASSIUM [2]: 6.6 MEQ/L | SODIUM [2]: 147 MEQ/L | TOTAL BILIRUBIN [2]: 0.57 mg/dL | TOTAL PROTEIN [2]: 6 G/DL | BASOPHIL [3]: 0.4% | EOSINOPHIL [3]: 0.7% | ERYTHROCYTE COUNT [3]: 7.11 x10E6/uL | HEMATOCRIT [3]: 44.17% | HEMOGLOBIN [3]: 13.9 G/DL | LEUKOCYTE COUNT [3]: 12.26 x10E3/uL | LYMPHOCYTE [3]: 82.2% | MEAN CORPUSCULAR HEMOGLOBIN [3]: 19.53 pg | MEAN CORPUSCULAR HEMOGLOBIN CONCENTRATION [3]: 31.47 G/DL | MEAN CORPUSCULAR VOLUME [3]: 62.13 fL | MONOCYTE [3]: 2.5% | NEUTROPHIL [3]: 13.1% | PLATELET COUNT [3]: 1171.33 x10E3/uL | ALANINE AMINOTRANSFERASE [3]: 37 u/L | ALBUMIN [3]: 3.53 G/DL | ALKALINE PHOSPHATASE [3]: 263.67 u/L | ASPARTATE AMINOTRANSFERASE [3]: 61.67 u/L | BLOOD UREA NITROGEN [3]: 11.67 mg/dL | CHLORIDE [3]: 103.33 MEQ/L | CHOLESTEROL [3]: 122.33 mg/dL | CREATINE PHOSPHOKINASE [3]: 219.67 u/L | CREATININE [3]: 0.4 mg/dL | GLUCOSE [3]: 175.67 mg/dL | PHOSPHORUS [3]: 13.27 mg/dL | POTASSIUM [3]: 7 MEQ/L | SODIUM [3]: 145.33 MEQ/L | TOTAL BILIRUBIN [3]: 0.47 mg/dL | TOTAL PROTEIN [3]: 5.9 G/DL | BASOPHIL [4]: 0.43% | EOSINOPHIL [4]: 0.17% | ERYTHROCYTE COUNT [4]: 6.8 x10E6/uL | HEMATOCRIT [4]: 42.73% | HEMOGLOBIN [4]: 13.33 G/DL | LEUKOCYTE COUNT [4]: 11.39 x10E3/uL | LYMPHOCYTE [4]: 85.5% | MEAN CORPUSCULAR HEMOGLOBIN [4]: 19.63 pg | MEAN CORPUSCULAR HEMOGLOBIN CONCENTRATION [4]: 31.3 G/DL | MEAN CORPUSCULAR VOLUME [4]: 62.77 fL | MONOCYTE [4]: 1.77% | NEUTROPHIL [4]: 11.33% | PLATELET COUNT [4]: 1352 x10E3/uL | ALANINE AMINOTRANSFERASE [4]: 37.67 u/L | ALBUMIN [4]: 3.6 G/DL | ALKALINE PHOSPHATASE [4]: 289 u/L | ASPARTATE AMINOTRANSFERASE [4]: 66.67 u/L | BLOOD UREA NITROGEN [4]: 12.67 mg/dL | CHLORIDE [4]: 102.33 MEQ/L | CHOLESTEROL [4]: 101.33 mg/dL | CREATINE PHOSPHOKINASE [4]: 145 u/L | CREATININE [4]: 0.33 mg/dL | GLUCOSE [4]: 186 mg/dL | PHOSPHORUS [4]: 13.3 mg/dL | POTASSIUM [4]: 6.73 MEQ/L | SODIUM [4]: 147.67 MEQ/L | TOTAL BILIRUBIN [4]: 0.27 mg/dL | TOTAL PROTEIN [4]: 6.1 G/DL
